# Several values for one entry are separate records, joined by “and”; a condition that tells them apart may be missing. Equal values may be shown once. In the oligonucleotide strings, read from the 5' end, every base follows the letter of its sugar. An asterisk marks phosphorothioate; unmarked linkages are phosphodiester. Other units and linkages are bracketed, terminal groups are in braces. A string of capitals states the bases alone. {NAG37} = tridentate N-acetyl-galactosamine targeting ligand, structure (NAG37)s; [invAb] = inverted abasic unit; m = 2'-O-methyl; f = 2'-fluoro
# Assays:
# [1] = system: ANGPTL3 protein; assay: Example 5: serum ANGPTL3 protein by ELISA in cynomolgus monkeys; format: in vivo, cynomolgus macaque (Macaca fascicularis); details: for Avg ANGPTL3 protein normalized to pre-treatment, individual animal / Avg ANGPTL3 protein normalized to pre-treatment, by group: 3.0 mg/kg single SC injection on day 1, serum; for Avg ANGPTL3 protein normalized to pre-treatment, by group: group average n=2; for reduction in ANGPTL3 protein compared to pre-treatment: all measured time points
# Procedure: ANGPTL3 RNAi agents were evaluated in cynomolgus monkeys. On day 1, cynomolgus macaque (Macaca fascicularis) primates (also referred to herein as “cynos”) were administered a single subcutaneous injection of 0.3 mL/kg (approximately 2-3 mL volume, depending on animal mass) containing 3.0 mg/kg of ANGPTL3 RNAi agent AD05308 or AD05418, formulated in saline.
# Two (2) cynos in each group were tested (n=2). Blood samples were drawn and serum samples were analyzed on days −37 (pre-dose), −15 (pre-dose), and −1 (pre-dose), 8, 16, 23, 30, and 37. Cynos were fasted overnight prior to each collection. ANGPTL3 protein levels in serum were measured by ELISA assay (R&D Systems), according to the manufacturer's recommendations. The ANGPTL3 protein levels were normalized. For normalization, the level of ANGPTL3 protein for each animal at a time point, was divided by the average pre-treatment level of expression in that animal (in this case at days −37, −15, and −1) to determine the ratio of expression “normalized to pre-treatment.”
# [2] = system: ANGPTL3 gene; assay: Example 8: serum LDL in cynomolgus monkeys; format: in vivo, cynomolgus macaque (Macaca fascicularis); details: 3.0 mg/kg single SC injection day 1, cynos, n=2
# Procedure: Additional ANGPTL3 RNAi agents were evaluated in cynomolgus monkeys. On day 1, cynomolgus macaque (Macaca fascicularis) primates (also referred to herein as “cynos”) were administered a single subcutaneous injection of 0.3 mL/kg (approximately 1-2 mL volume, depending on animal mass) containing 3.0 mg/kg of one of ANGPTL3 RNAi agent AD05577, AD05307, AD05488, AD05654, or AD05659, each formulated in saline.
# Two (2) cynos in each group were tested (n=2). Blood samples were drawn and serum samples were analyzed on days −8 (pre-dose), 1 (pre-dose), 8, 15, 22, 29, and 36. Cynos were fasted overnight prior to each collection. ANGPTL3 protein levels in serum were measured by ELISA assay (R&D Systems), according to the manufacturer's recommendations. Triglycerides, total cholesterol, high-density lipoprotein (HDL), and low-density lipoprotein (LDL) in serum were measured on a Cobas® Integra 400 (Roche Diagnostics), according to the manufacturer's recommendations.
# The ANGPTL3 protein levels, triglyceride levels, total cholesterol levels, HDL levels, and LDL levels for each animal were normalized. For normalization, the level of ANGPTL3 protein, triglyceride, HDL, and total cholesterol, respectively, for each animal at a time point, was divided by the average pre-treatment level of expression in that animal (in this case at days −8, and 1 (pre-dose)) to determine the ratio of expression “normalized to pre-treatment.”
# [3] = system: ANGPTL3 gene; assay: Example 2: serum total cholesterol in mice; format: in vivo
# Procedure: (§1) To assess the in vivo activity of ANGPTL3 RNAi agents that are designed to target different positions on the ANGPTL3 gene, six- to eight-week-old female C57bl/6 mice were used. Pre-dose serum samples were taken at day −1 after a four hour fast. At day 1, each mouse was given a single subcutaneous administration of 200 μl containing either 3 mg/kg (mpk) of an ANGPTL3 RNAi agent in D5W (dextrose in 5% water), or control (D5W) with no RNAi agent, according to the dosing groups recited in Table 7.
# (§2) Each of the RNAi agents included a modified sequence and an N-acetyl-galactosamine-containing targeting ligand conjugated to the 5′ terminal end of the sense strand. (See Tables 3, 4, and 5 for modified sequences and targeting ligand structures). The injections were performed between the skin and muscle (i.e. subcutaneous injections) into the loose skin over the neck and shoulder area. Three (3) mice in each group were tested (n=3). Serum was collected on days 8, […], 22, 29, and day 36 (for Groups 1 and 5-11 only). Mice were fasted for four hours prior to each collection. ANGPTL3 protein levels in serum were measured by ELISA assay (R&D Systems), according to the manufacturer's recommendations. Triglycerides, high-density lipoprotein (HDL), and total cholesterol in serum were measured on a Cobas® Integra 400 (Roche Diagnostics), according to the manufacturer's recommendations.
# (§3) The ANGPTL3 protein levels, triglyceride levels, HDL levels, and total cholesterol levels for each animal were normalized. For normalization, the level of ANGPTL3 protein, triglyceride, HDL, and total cholesterol, respectively, for each animal at a time point, was divided by the pre-treatment level of expression in that animal (in this case at day −1) to determine the ratio of expression “normalized to pre-treatment.” Expression at a specific time point was then normalized to the D5W control group by dividing the “normalized to pre-treatment” ratio for an individual animal by the mean “normalized to pretreatment” ratio of all mice in the D5W control group.
# [4] = system: ANGPTL3 gene; assay: Example 2: serum HDL in mice; format: in vivo
# Procedure: as §1, §2, §3
# [5] = Day 16, single 3.0 mg/kg subcutaneous, cynomolgus monkeys, 3 mg/kg
# [6] = single 3.0 mg/kg subcutaneous, cynomolgus monkeys
# [7] = day 37, single 3.0 mg/kg subcutaneous, cynomolgus monkeys
# [8] = Day 8, 3.0 mg/kg single subcutaneous dose on day 1, female C57bl/6 mice
# [9] = Day 13, 3.0 mg/kg single subcutaneous dose on day 1, female C57bl/6 mice
# [10] = Day 22, 3.0 mg/kg single subcutaneous dose on day 1, female C57bl/6 mice
# [11] = Day 29, 3.0 mg/kg single subcutaneous dose on day 1, female C57bl/6 mice
# [12] = Day 36, 3.0 mg/kg single subcutaneous dose on day 1, female C57bl/6 mice
Substance,"Avg ANGPTL3 protein normalized to pre-treatment, individual animal ([1]; Day 8, Cyno A)","Avg ANGPTL3 protein normalized to pre-treatment, individual animal ([1]; Day 8, Cyno B)","Avg ANGPTL3 protein normalized to pre-treatment, by group ([1]; Day 8)","Avg ANGPTL3 protein normalized to pre-treatment, individual animal ([1]; Day 16, Cyno A)","Avg ANGPTL3 protein normalized to pre-treatment, individual animal ([1]; Day 16, Cyno B)","Avg ANGPTL3 protein normalized to pre-treatment, by group ([1]; Day 16)","Avg ANGPTL3 protein normalized to pre-treatment, individual animal ([1]; Day 23, Cyno A)","Avg ANGPTL3 protein normalized to pre-treatment, individual animal ([1]; Day 23, Cyno B)","Avg ANGPTL3 protein normalized to pre-treatment, by group ([1]; Day 23)","Avg ANGPTL3 protein normalized to pre-treatment, individual animal ([1]; Day 30, Cyno A)","Avg ANGPTL3 protein normalized to pre-treatment, individual animal ([1]; Day 30, Cyno B)","Avg ANGPTL3 protein normalized to pre-treatment, by group ([1]; Day 30)","Avg ANGPTL3 protein normalized to pre-treatment, individual animal ([1]; Day 37, Cyno A)","Avg ANGPTL3 protein normalized to pre-treatment, individual animal ([1]; Day 37, Cyno B)","Avg ANGPTL3 protein normalized to pre-treatment, by group ([1]; Day 37)","reduction in ANGPTL3 protein compared to pre-treatment [1, 6]",further results
"AD05418: RNAi agent duplex: antisense AM07159-AS, sense AM07158-SS (antisense mU*fU*mU*fGmAfAmUfUmAfAmUfGmUfCmCfAmUfGmGfG*mU; sense {NAG37}*[invAb]*mAmCmCmCmAmUmGmGfAfCfAmUmUmAmAmUmUmCmAmAmA*[invAb])",0.585,0.503,0.544,0.358,0.309,0.334,0.260,0.340,0.300,0.311,0.467,0.389,0.212,0.328,0.270,reduction,"normalized ANGPTL3 protein level, individual animals [1, 5]: 0.358 and 0.309; reduction in ANGPTL3 protein, individual animals [1, 5]: approximately 64% and ~69%; average ANGPTL3 protein normalized to pre-treatment [1, 7]: 0.270; average reduction in ANGPTL protein levels [1, 7]: approximately 73%"
"AD05488: RNAi agent duplex: antisense AM07235-AS, sense AM07234-SS (antisense mU*fA*mC*fUmGfAmUfCmAfAmAfUmAfUmGfUmUfGmAfG*mC; sense {NAG37}*[invAb]*mGmCmUmCmAmAmCmAfUfAfUmUmUmGmAmUmCmAmGmUmA*[invAb])",,,,,,,,,,,,,,,,,Average LDL Normalized to Pre-Treatment ([2]; Day 8): 0.934; Average LDL Normalized to Pre-Treatment ([2]; Day 15): 0.926; Average LDL Normalized to Pre-Treatment ([2]; Day 22): 0.891; Average LDL Normalized to Pre-Treatment ([2]; Day 29): 0.872; Average LDL Normalized to Pre-Treatment ([2]; Day 36): 0.805
"AD05308: RNAi agent duplex: antisense AM07003-AS, sense AM07002-SS (chain 1 mU*fG*mU*fUmGfAmAfUmUfAmAfUmGfUmCfCmAfUmGfG*mA; chain 2 {NAG37}*[invAb]*mUmCmCmAmUmGmGmAfCfAfUmUmAmAmUmUmCmAmAmCmA*[invAb])",0.545,0.287,0.416,0.423,0.471,0.447,0.832,0.465,0.649,0.722,0.572,0.647,0.709,0.421,0.565,reduction,"Avg Total Chol (Average Total Cholestrol Normalized to Pre-Treatment and Control) [3, 8]: 0.671; Avg Total Chol (Average Total Cholestrol Normalized to Pre-Treatment and Control) [3, 9]: 0.645; Avg Total Chol (Average Total Cholestrol Normalized to Pre-Treatment and Control) [3, 10]: 0.621; Avg Total Chol (Average Total Cholestrol Normalized to Pre-Treatment and Control) [3, 11]: 0.669; Avg Total Chol (Average Total Cholestrol Normalized to Pre-Treatment and Control) [3, 12]: 0.905; Avg HDL (Average HDL Normalized to Pre-Treatment and Control) [4, 8]: 0.634; Avg HDL (Average HDL Normalized to Pre-Treatment and Control) [4, 9]: 0.583; Avg HDL (Average HDL Normalized to Pre-Treatment and Control) [4, 10]: 0.572; Avg HDL (Average HDL Normalized to Pre-Treatment and Control) [4, 11]: 0.606; Avg HDL (Average HDL Normalized to Pre-Treatment and Control) [4, 12]: 0.854"

# Source: US12729377B2, “RNAi agents and compositions for inhibiting expression of angiopoietin-like 3 (ANGPTL3), and methods of use” (Arrowhead Pharmaceuticals, Inc., priority 2017, dated 2026)
